In ChEMBL document CHEMBL4190348, “Synthesis of cytotoxically active derivatives based on alkylated 2,3-seco-triterpenoids” (Eur J Med Chem, 2017) one finds IC50, EC50 and GI50 data, which are given here for 18 molecules.

≈ marks a conversion by molar mass, not a printed value.

For one assay, the system named is HEp-2. In words: Cytotoxicity against human Hep2 cells assessed as reduction in cell viability incubated for 72 hrs by MTT assay. The assay is classed as functional, cell-based. As to conditions: HEp-2, 72 h. Background: Tetrazolium assays rely on reduction of a dye to a coloured formazan, in cell work by metabolically active cells.
A further assay deals with Human alphaherpesvirus 1. In words: Antiviral activity against HSV1. Type of assay: functional, organism-based.
For assay [1], the system named is Human immunodeficiency virus 1. The experiment in a line: Antiviral activity against HIV1. The assay is classed as functional, organism-based.
Another assay relates to HCT-116. In words: Cytotoxicity against human HCT116 cells assessed as reduction in cell viability incubated for 72 hrs by MTT assay. Type of assay: functional, cell-based. The note with it: HCT-116, 72 h.
A further assay relates to A549. In words: Cytotoxicity against human A549 cells assessed as reduction in cell viability incubated for 72 hrs by MTT assay. Type of assay: functional, cell-based. The note with it: A549, 72 h.
The subject of another assay is RD. In words: Cytotoxicity against human TE32 cells assessed as reduction in cell viability incubated for 72 hrs by MTT assay. The assay is classed as functional, cell-based.
A short description of assay [2]: Cytotoxicity against human MS cells assessed as reduction in cell viability incubated for 72 hrs by MTT assay. Type of assay: functional, cell-based.
The next assay deals with HEK293. In words: Cytotoxicity against HEK293 cells assessed as reduction in cell viability incubated for 72 hrs by MTT assay. Type of assay: cell-based. As to conditions: Homo sapiens, HEK293, 72 h.
The test system of a further assay is HL-60. In words: Growth inhibition of human HL60 cells. Type of assay: functional.

Broadly, the IC50 is the concentration that gives 50% inhibition. Broadly, the EC50 is the concentration giving half of the maximal effect. High values mean a need for much substance, low ones an effect from little substance. Turning to `CC(=O)C(C)(C)[C@@H]1CC[C@]2(C)[C@H](CC[C@@H]3[C@H]4[C@H]5OC[C@@]4(CCC5(C)C)CC[C@]32C)[C@@]1(C)CC#N`, the IC50 (with HEp-2; in the assay with HCT-116; in the assay with A549; with RD; in assay [2]) was over 100 µM in each case. Besides, the EC50 turned out to be 21.1 µg/mL (≈ 45.1 µM) in the assay on Human alphaherpesvirus 1 and 7.2 µg/mL (≈ 15.4 µM) in [1].
As to `C=C(C)[C@@H]1CC[C@]2(C(=O)OC)CC[C@]3(C)[C@H](CC[C@@H]4[C@@](C)(CC#N)[C@H](C(C)(C)[C@@H](C)O)CC[C@]43C)[C@@H]12`, the half-maximal inhibitory concentration (IC50) with HEp-2 was 43.8 µM; in the assay with HCT-116, 31.7 µM; in the assay on A549 it was 19.1 µM; in the assay on RD, 20.2 µM; in assay [2], 15.1 µM.
The corresponding values for `C=C(C)[C@@H]1CC[C@]2(C(=O)OC)CC[C@]3(C)[C@H](CC[C@@H]4[C@@]5(C)C/C(=N\O)[C@](C)(O)C(C)(C)[C@@H]5CC[C@]43C)[C@@H]12` are 71 µM, over 100 µM, 55.4 µM, 29 µM and 23.5 µM.
As for `C=C(C=O)[C@@H]1CC[C@]2(C(=O)OC)CC[C@]3(C)[C@H](CC[C@@H]4[C@@]5(C)C(C#N)=C(C)C(C)(C)[C@@H]5CC[C@]43C)[C@@H]12`, the half-maximal inhibitory concentration (IC50) in the assay with HEp-2 worked out at 17.4 µM; with HCT-116, 7.09 µM; in the assay with A549, 36 µM; in the assay on RD, 21.8 µM; in assay [2], 8.59 µM.
Consider `C=C(C=O)[C@@H]1CC[C@]2(C(=O)OC)CC[C@]3(C)[C@H](CC[C@@H]4[C@@](C)(CC#N)[C@H](C(C)(C)C(C)=O)CC[C@]43C)[C@@H]12`, for which the IC50 was 52.1 µM with HEp-2; 7.3 µM in the assay on HCT-116; 15.4 µM in the assay on A549; 5.04 µM in the assay with RD; 6 µM with HEK293; 5.48 µM in assay [2].
In the case of `CC1(C)CC[C@]23CC[C@]4(C)[C@H](CC[C@@H]5[C@@](C)(CC#N)[C@H](C(C)(C)C(=O)C(Br)Br)CC[C@]54C)[C@H]2[C@H]1OC3`, the IC50 (in the assay with HEp-2; in the assay with HCT-116; in the assay with A549; with RD; in [2]) was over 100 µM in each case.
For the molecule `CC(=O)O[C@H](C)C(C)(C)[C@@H]1CC[C@]2(C)[C@H](CC[C@@H]3[C@H]4[C@H]5OC[C@@]4(CCC5(C)C)CC[C@]32C)[C@@]1(C)CC#N`, the 50% inhibitory concentration (IC50) is over 100 µM in the assay on HEp-2; 65.3 µM in the assay with HCT-116; 45.7 µM with A549; 31.9 µM with RD; 21.3 µM in assay [2].
In assay [1], `C=C(C)[C@@H]1CC[C@]2(C(=O)O)CC[C@]3(C)[C@H](CC[C@@H]4[C@@]5(C)[C@H](C(=O)O)[C@H](O)C(C)(C)[C@@H]5CC[C@]43C)[C@@H]12` [EPICEANOTHIC ACID] registered an EC50 of under 0.064 µg/mL.
On to `CC1(C)CC[C@]23CC[C@]4(C)[C@H](CC[C@@H]5[C@@]6(C)C(C#N)=C(CO)C(C)(C)[C@@H]6CC[C@]54C)[C@H]2[C@H]1OC3`, for which the IC50 with HEp-2 is over 100 µM; in the assay on HCT-116 it was over 100 µM; in the assay with A549, 57.8 µM; in the assay with RD it was over 100 µM; in [2] it was over 100 µM.
Take `C[C@@H](O)C(C)(C)[C@@H]1CC[C@]2(C)[C@H](CC[C@@H]3[C@H]4[C@H]5OC[C@@]4(CCC5(C)C)CC[C@]32C)[C@@]1(C)CC#N`: the IC50 with HEp-2 is over 100 µM; in the assay with HCT-116 it was over 100 µM; in the assay on A549 it was over 200 µM; in the assay with RD it was 96.5 µM; in assay [2] it was 83.3 µM.
For `C=C(C)[C@@H]1CC[C@]2(C(=O)OC)CC[C@]3(C)[C@H](CC[C@@H]4[C@@](C)(CC#N)[C@H](C(C)(C)C(C)=O)CC[C@]43C)[C@@H]12`, the IC50 (with HEp-2; in the assay on HCT-116; in the assay with A549; in the assay on RD; in assay [2]) was over 100 µM each time. In assay [1], a half-maximal response (EC50) required 39.9 µg/mL (≈ 80.5 µM).
For `COC(=O)[C@]12CC[C@@H](C(C)=O)[C@@H]1[C@H]1CC[C@@H]3[C@@]4(C)C(C#N)=C(C)C(C)(C)[C@@H]4CC[C@@]3(C)[C@]1(C)CC2`, the 50% inhibitory concentration (IC50) (with HEp-2; with HCT-116; with A549; in the assay on RD; in [2]) was over 100 µM in each case.
Take `C=C(C)[C@@H]1CC[C@]2(C(=O)OC)CC[C@]3(C)[C@H](CC[C@@H]4[C@@](C)(CC#N)[C@H](C(C)(C)[C@@H](C)OC(C)=O)CC[C@]43C)[C@@H]12`: the IC50 with HEp-2 is over 100 µM; with HCT-116, over 100 µM; in the assay on A549 it was 92.7 µM; with RD, 42.5 µM; in assay [2] it was 96.9 µM.
As for `COC(=O)[C@]12CC[C@@H](C(C)=O)[C@@H]1[C@H]1CC[C@@H]3[C@@](C)(CC#N)[C@H](C(C)(C)C(C)=O)CC[C@@]3(C)[C@]1(C)CC2`, the IC50 (with HEp-2; in the assay with HCT-116; in the assay with A549; with RD; in assay [2]) was over 100 µM in each case.
`CC1(C)CC[C@]23CC[C@]4(C)[C@H](CC[C@@H]5[C@@](C)(CC#N)[C@H](C(C)(C)C(=O)CBr)CC[C@]54C)[C@H]2[C@H]1OC3`: the IC50 in the assay on HEp-2 is over 100 µM; in the assay on HCT-116, over 100 µM; with A549, over 100 µM; with RD, 52.9 µM; in [2], over 100 µM.
For `CC1(C)CC[C@]23CC[C@]4(C)[C@H](CC[C@@H]5[C@@]6(C)C/C(=N\O)[C@](C)(O)C(C)(C)[C@@H]6CC[C@]54C)[C@H]2[C@H]1OC3`, the concentration for half-maximal inhibition (IC50) in the assay with HEp-2 is 85.4 µM; in the assay with HCT-116, over 100 µM; with A549 it was over 100 µM; in the assay with RD, 33.7 µM; in assay [2], 87.3 µM.
For orientation: GI50 means the concentration that inhibits growth by half. A high value points to lower sensitivity of the cells. In turn, `C=C(C)[C@@H]1CC=C2[C@@H](CC[C@]3(C)[C@@H]([C@H](C)CC(=O)CC(C)C)CC[C@@]23C)[C@@]1(C)CCC(=O)O` showed a 50% growth inhibitory concentration (GI50) with HL-60 of 6.8 µM.
For `C=C(C=O)[C@@H]1CC[C@]2(C(=O)OC)CC[C@]3(C)[C@H](CC[C@@H]4[C@@](C)(CC#N)[C@H](C(C)(C)C(=O)C(Br)Br)CC[C@]43C)[C@@H]12`, the IC50 in the assay on HEp-2 was over 100 µM; in the assay with HCT-116 it was 26.3 µM; with A549, over 100 µM; with RD, 6.96 µM; in assay [2] it was 6.27 µM.
